Measured values taken from patent US20090274577A1, “STE[…] TREATMENT WITH REDUCTANT AND OXIDANT” (priority 2008, published 2009).
Like-named read-outs stand apart in the source and are kept apart here.

Assays:
[1] = cited from earlier work
[2] = tested on: Bacillus atrophaeus spores; assay: Filtering test: spores incubated in test solution, filtered, filter half treated with ozone, colonies counted; type: cell-based; conditions: test solution followed by ~350 ppm ozone, 5 or 10 min
From the text: Bacterial spores: Stainless steel discs with Bacillus atrophaeus spores (log 6, cat #1-6100ST, Raven Biological Laboratories).
An ozone generator provided ˜350 ppm O3, and a flow rate of ˜25 l/min, using setting No. 1.
Commercially available sterile single filters (pore size 0.45 μm) and an analytical test filter funnel from Nalgene was used (F-2161, Sigma-Aldrich). For suction, a Rietschle Thomas DTF 6 vacuum pump was used, with a flow rate of ˜6 m3/h, providing a vacuum of ˜150 mbar abs.
Filtering test: In filtering test experiments the spore solutions were prepared in a volume of 1 ml and processed. Thereto, after an incubation period of 5 min in the appropriate buffer at 40° C. using a rotary shaker, an aliquot of 250 μl of the suspension was transferred onto a sterile single use filters. The filter was washed two times with 10 ml of sterile water. The filter was retrieved under sterile conditions, and the filter was cut into halves using a sterile scissor. Only one half of the filter was treated with ozone, while the other half was kept as control, i.e. without ozone treatment. Finally, both halves were placed onto a TSA plate and incubated at 30° C. Initially Nutrient Agar plates were used, but later on a switch was made to TSA plates, in order to utilize the more pronounced reddish colour of Bacillus atrophaeus colonies which was facilitating analysis and documentation. […]

For `O=[O+][O-]` [ozone], the “half-life of ozone in gas” value ([1]; 20 ° C.) is listed as “approximately 3 days”, the “half-life of ozone in gas” value ([1]; 250° C.) is listed as 1.5 s and the “sterilizing/disinfecting/killing effect (in words)” value [2] is listed as “increased after 10 min compared to 5 min”.
